From patent publication US20260356879A1, “CELASTROL DERIVATIVES” (Celloram Inc., priority 2022, published 2026) come the findings set out here.

The structures appear in SMILES notation.

The assay deals with T1, NEK7 (Homo sapiens, UniProt Q8TDX7).
T1 construct: DARTS with Pronase, immunoblot
Description: DARTS assay: protection of NEK7 from Pronase degradation in THP-1 lysates. Format: binding. The note with it: 10 μM, FIG. 6C. The text has this: The NLRP3 inflammasome is composed of a multi-protein complex and the exact molecular mode of NLRP3 activation remains unclear. Currently, there are no NLRP3 inflammasome inhibitors in the clinic, and it is important to identify the mechanism of action and molecular target of potential small molecules that interact with NLRP3. This example illustrates a study of the ability of CLM-022 to protect the NLRP3 molecule as determined using a drug affinity responsive target stability (DARTS) assay. DARTS assay is a robust method to identify small molecule target protein. In case of a drug-target interaction, the small molecule protects target protein from degradation by proteinase (Pronase) whereas free-proteins may be degraded very efficiently in the given condition.
The DARTS assay was performed using THP-1 lysates pretreated with LPS and Nigericin to induce activation of NLRP3 inflammasome. THP-1 cells (1×10^5/mL) were treated with LPS (100 ng/ml) for 3 hours, followed by 10 μM Nigericin for an additional 30 minutes. Pronase (50-500 ng/μg of protein) was added to the lysate with CLM-022 (10 μM) or MCC950 (10 μM) for the indicated time (10-15 min) at room temperature. The protein components of NLRP3 inflammasome were visualized using antibody recognizing NLRP3-Natch domain (FIG. 6A), NLRP-PYD domain (FIG. 6B), or NEK7 protein (FIG. 6C). […]

T1 sequence (Q8TDX7 whole entry): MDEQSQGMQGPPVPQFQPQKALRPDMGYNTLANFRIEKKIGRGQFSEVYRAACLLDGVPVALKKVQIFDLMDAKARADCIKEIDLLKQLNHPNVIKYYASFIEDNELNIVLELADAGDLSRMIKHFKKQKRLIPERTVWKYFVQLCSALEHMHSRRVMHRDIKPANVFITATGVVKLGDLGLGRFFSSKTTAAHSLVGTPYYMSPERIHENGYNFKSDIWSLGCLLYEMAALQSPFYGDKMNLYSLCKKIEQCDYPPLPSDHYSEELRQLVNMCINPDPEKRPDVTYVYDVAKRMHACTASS

As for `CC1=C(O)C(=O)C=C2C1=CC=C1[C@@]2(C)CC[C@@]2(C)[C@@H]3C[C@](C)(N(C)C(=O)C(=O)N(C)C)CC[C@]3(C)CC[C@]12C` [Compound 22, N′-[(2R,4aS,6aR,6aS,14aS,14bR)-10-hydroxy-2,4a,6a,6a,9,14a-hexamethyl-11-oxo-1,3,4,5,6,13,14,14b-octahydropicen-2-yl]-N,N,N′-trimethyl-oxamide], the “protection of NEK7 from Pronase-induced degradation” value is “did not protect NEK7 from Pronase-induced degradation”.
